Experimental data from US20250098679A1, “HERBICIDAL PYRIDONE DERIVATIVES” (SYNGENTA CROP PROTECTION AG, priority 2021, published 2025).

Key:
Type in all cases: in vivo
Settings in all cases: evaluated after 13 days
Setaria faberi (SETFA) = assay: Post-emergence Test, Setaria faberi (SETFA); set-up: key to percentage damage caused to the plant, SETFA (five-point scale): 5=81-100%, 4=61-80%, 3=41-60%, 2=21-40%, 1=0-20% damage
In short: (§1)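 Application was a spray of acetone/water (50:50) with 0.5% Tween 20 onto pots of test species sown in standard soil. Unless otherwise stated, the rate was 1000 g/ha. After 13 days under glasshouse conditions (24/16 °C, 65% humidity), injury was scored from 1 (0-20%) to 5 (81-100%).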

[1] = system: Echinochloa crus-galli (ECHCG); assay: Post-emergence Test, Echinochloa crus-galli (ECHCG); set-up: key to percentage damage caused to the plant, ECHCG (five-point scale): 5=81-100%, 4=61-80%, 3=41-60%, 2=21-40%, 1=0-20% damage
In short: as §1

Zea mays (ZEAMX) = assay: Post-emergence Test, Zea mays (ZEAMX); set-up: key to percentage damage caused to the plant, ZEAMX (five-point scale): 5=81-100%, 4=61-80%, 3=41-60%, 2=21-40%, 1=0-20% damage
In short: as §1

[2] = system: Ipomoea hederacea (IPOHE); assay: Post-emergence Test, Ipomoea hederacea (IPOHE); set-up: key to percentage damage caused to the plant, IPOHE (five-point scale): 5=81-100%, 4=61-80%, 3=41-60%, 2=21-40%, 1=0-20% damage
In short: as §1

[3] = system: Amaranthus palmeri (AMAPA); assay: Post-emergence Test, Amaranthus palmeri (AMAPA); set-up: key: 5=81-100%, 4=61-80%, 3=41-60%, 2=21-40%, 1=0-20% damage
In short: as §1

[4] = system: Amaranthus retoflexus (AMARE); assay: Post-emergence Test, Amaranthus retoflexus (AMARE); set-up: key to percentage damage caused to the plant, AMARE (five-point scale): 5=81-100%, 4=61-80%, 3=41-60%, 2=21-40%, 1=0-20% damage
In short: as §1

Structure (SMILES) | percentage damage caused to the plant, SETFA (five-point scale) (Setaria faberi (SETFA); 1000 g/ha) | percentage damage caused to the plant, ECHCG (five-point scale) ([1]; 1000 g/ha) | percentage damage caused to the plant, ZEAMX (five-point scale) (Zea mays (ZEAMX); 1000 g/ha) | percentage damage caused to the plant, IPOHE (five-point scale) ([2]; 1000 g/ha) | percentage damage caused to the plant, AMAPA (five-point scale) ([3]; 1000 g/ha) | percentage damage caused to the plant, AMARE (five-point scale) ([4]; 1000 g/ha) | percentage damage caused to the plant, SETFA (five-point scale) (Setaria faberi (SETFA); 250 g/Ha) | percentage damage caused to the plant, ECHCG (five-point scale) ([1]; 250 g/Ha) | percentage damage caused to the plant, ZEAMX (five-point scale) (Zea mays (ZEAMX); 250 g/Ha) | percentage damage caused to the plant, IPOHE (five-point scale) ([2]; 250 g/Ha) | percentage damage caused to the plant, AMAPA (five-point scale) ([3]; 250 g/Ha) | percentage damage caused to the plant, AMARE (five-point scale) ([4]; 250 g/Ha)
CCn1c(Cn2ccc(C(F)(F)F)n2)cc(=O)c(C(=O)O)c1-c1ccc(Cl)c(S(C)(=O)=O)c1 [Compound 116, 2-(4-chloro-3-methylsulfonyl-phenyl)-1-ethyl-4-oxo-6-[[3-(trifluoromethyl)pyrazol-1-yl]methyl]pyridine-3-carboxylic acid] | 1 (1=0-20%) | 1 (1=0-20%) | 1 (1=0-20%) | 1 (1=0-20%) | 1 (1=0-20%) | 1 (1=0-20%) |  |  |  |  |  | 
CCn1c(Cn2cnc(Cl)c2Cl)cc(=O)c(C(=O)O)c1-c1ccc(Cl)c(Cl)c1 [Compound 126, 6-[(4,5-dichloroimidazol-1-yl)methyl]-2-(3,4-dichlorophenyl)-1-ethyl-4-oxo-pyridine-3-carboxylic acid] | 0 | 0 | 1 (1=0-20%) | 0 | 1 (1=0-20%) | 0 | 0 | 1 (1=0-20%) | 0 | 0 | 0 | 0
CCn1c(Cn2ccc(C(F)(F)F)n2)cc(=O)c(C(=O)O)c1-c1ccc(S(C)(=O)=O)c(Cl)c1 [Compound 129, 2-(3-chloro-4-methylsulfonyl-phenyl)-1-ethyl-4-oxo-6-[[3-(trifluoromethyl)pyrazol-1-yl]methyl]pyridine-3-carboxylic acid] | 0 | 1 (1=0-20%) | 1 (1=0-20%) | 0 | 0 | 0 |  |  |  |  |  | 
CCn1c(Cn2ccc(C(F)(F)F)n2)cc(=O)c(C(=O)O)c1-c1ccc(N)c(Cl)c1 [Compound 133, 2-(4-amino-3-chloro-phenyl)-1-ethyl-4-oxo-6-[[3-(trifluoromethyl)pyrazol-1-yl]methyl]pyridine-3-carboxylic acid] | 0 | 0 | 0 | 1 (1=0-20%) | 1 (1=0-20%) | 1 (1=0-20%) | 1 (1=0-20%) | 0 | 0 | 0 | 1 (1=0-20%) | 1 (1=0-20%)
CCn1c(Cn2nc(C)cc2OC(C)(C)C)cc(=O)c(C(=O)O)c1-c1ccc(Cl)c(Cl)c1 [Compound 152, 6-[(5-tert-butoxy-3-methyl-pyrazol-1-yl)methyl]-2-(3,4-dichlorophenyl)-1-ethyl-4-oxo-pyridine-3-carboxylic acid] | 0 | 1 (1=0-20%) | 1 (1=0-20%) | 0 | 1 (1=0-20%) | 1 (1=0-20%) |  |  |  |  |  | 
CCn1c(Cn2ccc(NC(C)=O)n2)cc(=O)c(C(=O)O)c1-c1ccc(Cl)c(Cl)c1 [Compound 154, 6-[(3-acetamidopyrazol-1-yl)methyl]-2-(3,4-dichlorophenyl)-1-ethyl-4-oxo-pyridine-3-carboxylic acid] | 0 | 0 | 1 (1=0-20%) | 0 | 0 | 0 | 0 | 0 | 1 (1=0-20%) | 0 | 0 | 0
C/C=C/C(=O)Nc1ccn(Cc2cc(=O)c(C(=O)O)c(-c3ccc(Cl)c(Cl)c3)n2CC)n1 [Compound 155, 6-[[3-[[(E)-but-2-enoyl]amino]pyrazol-1-yl]methyl]-2-(3,4-dichlorophenyl)-1-ethyl-4-oxo-pyridine-3-carboxylic acid] | 0 | 1 (1=0-20%) | 0 | 0 | 1 (1=0-20%) | 0 | 1 (1=0-20%) | 1 (1=0-20%) | 0 | 1 (1=0-20%) | 1 (1=0-20%) | 1 (1=0-20%)
CCn1c(Cn2ccc(O)n2)cc(=O)c(C(=O)O)c1-c1ccc(Cl)c(Cl)c1 [Compound 167, 2-(3,4-dichlorophenyl)-1-ethyl-6-[(3-hydroxypyrazol-1-yl)methyl]-4-oxo-pyridine-3-carboxylic acid] | 0 | 0 | 0 | 0 | 1 (1=0-20%) | 0 |  |  |  |  |  | 
CCn1c(C(C)n2ccc(C(F)(F)F)n2)cc(=O)c(C(=O)O)c1-c1ccc(Cl)c(Cl)c1 (centres unmarked) [Compound 172, 2-(3,4-dichlorophenyl)-1-ethyl-4-oxo-6-[1-[3-(trifluoromethyl)pyrazol-1-yl]ethyl]pyridine-3-carboxylic acid] | 1 (1=0-20%) |  | 1 (1=0-20%) | 1 (1=0-20%) | 2 (2=21-40%) | 2 (2=21-40%) |  | 0 | 0 | 0 | 1 (1=0-20%) | 1 (1=0-20%)
CCn1c(Cn2nc(C(C)(C)C)cc2C(F)(F)F)cc(=O)c(C(=O)O)c1-c1ccc(Cl)c(Cl)c1 [Compound 181, 6-[[3-tert-butyl-5-(trifluoromethyl)pyrazol-1-yl]methyl]-2-(3,4-dichlorophenyl)-1-ethyl-4-oxo-pyridine-3-carboxylic acid] | 0 |  | 0 | 1 (1=0-20%) | 1 (1=0-20%) | 1 (1=0-20%) |  | 1 (1=0-20%) | 0 | 0 | 0 | 0
